Laboratory results from PMC9120017, “Inhibition mechanism of the chloride channel TMEM16A by the pore blocker 1PBC” (Nature Communications, 2022).
Read-outs that look alike come from different tables or passages of the source.

Biological target: T1, mouse TMEM16A mutant I512A (Mus musculus, UniProt Q8BHY3, I512A)
T1 construct: expressed in transfected cells; host or cells: HEK293T
T1 sequence (Q8BHY3 1-960 I512A): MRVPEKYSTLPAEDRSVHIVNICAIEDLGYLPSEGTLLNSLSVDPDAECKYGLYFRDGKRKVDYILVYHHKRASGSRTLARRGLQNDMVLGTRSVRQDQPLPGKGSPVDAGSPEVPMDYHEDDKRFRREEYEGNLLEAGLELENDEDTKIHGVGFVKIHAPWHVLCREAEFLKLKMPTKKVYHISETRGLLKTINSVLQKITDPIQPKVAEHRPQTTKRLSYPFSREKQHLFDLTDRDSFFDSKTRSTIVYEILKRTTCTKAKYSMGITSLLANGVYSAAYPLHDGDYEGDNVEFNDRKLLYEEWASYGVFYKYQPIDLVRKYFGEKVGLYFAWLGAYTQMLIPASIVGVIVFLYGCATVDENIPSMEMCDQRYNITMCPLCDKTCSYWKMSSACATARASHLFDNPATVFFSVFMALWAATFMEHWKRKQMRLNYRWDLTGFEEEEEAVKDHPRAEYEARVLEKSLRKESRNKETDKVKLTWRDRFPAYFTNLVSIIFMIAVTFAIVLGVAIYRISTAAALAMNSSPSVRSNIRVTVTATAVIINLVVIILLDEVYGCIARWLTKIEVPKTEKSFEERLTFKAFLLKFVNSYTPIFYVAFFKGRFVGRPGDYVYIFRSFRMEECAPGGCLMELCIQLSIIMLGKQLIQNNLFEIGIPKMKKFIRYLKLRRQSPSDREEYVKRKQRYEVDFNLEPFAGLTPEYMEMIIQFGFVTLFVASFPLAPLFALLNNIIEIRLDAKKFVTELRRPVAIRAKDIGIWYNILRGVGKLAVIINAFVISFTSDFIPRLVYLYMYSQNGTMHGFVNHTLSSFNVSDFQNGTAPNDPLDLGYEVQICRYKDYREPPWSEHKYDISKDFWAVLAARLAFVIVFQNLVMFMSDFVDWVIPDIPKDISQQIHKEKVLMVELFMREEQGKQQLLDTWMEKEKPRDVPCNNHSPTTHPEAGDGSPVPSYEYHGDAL
Assay: Inside-out patch recording of 1PBC block, mutant I512A
Assay type: cell-based
Conditions: for remaining activity at 100 µM: 100 µM 1PBC
Procedure: HEK293T cells (ATCC CRL-1573) were maintained in Dulbecco’s modified Eagle’s medium (DMEM; Sigma-Aldrich) supplemented with 10 U ml^−1 penicillin, 0.1 mg ml^−1 streptomycin (Sigma-Aldrich), 2 mM L-glutamine (Sigma-Aldrich), and 10% FBS (Sigma-Aldrich) in a humidified atmosphere containing 5% CO2 at 37 °C. HEK293S GnTI^− cells (ATCC CRL-3022) were maintained in HyClone HyCell TransFx-H medium (GE Healthcare) supplemented with 10 U ml^−1 penicillin, 0.1 mg ml^−1 streptomycin, 4 mM L-glutamine, 0.15% poloxamer 188 (Sigma-Aldrich), and 1% FBS in an atmosphere containing 5% CO2 at 185 rpm at 37 °C. The ac splice variant of mouse TMEM16A (UniProt ID: Q8BHY3), mouse TMEM16B (UniProt ID: Q8CFW1), or mouse TMEM16F (UniProt ID: Q6P9J9) bearing a 3C cleavage site, a Venus YFP, a Myc tag, and a Streptavidin-binding peptide (SBP) downstream of the open reading frame in a modified pcDNA3.1 vector (Invitrogen) were used as described previously[21],[31]. Mutations were introduced using a modified QuikChange method[58] and were verified by sequencing.
HEK293T cells were transfected with 3–4 μg DNA per 6 cm Petri dish using the calcium phosphate co-precipitation method and were used within 24–96 h after transfection. Recordings were performed on inside-out patches excised from HEK293T cells expressing the construct of interest. Patch pipettes were pulled from borosilicate glass capillaries (O.D. 1.5 mm, I.D. 0.86 mm, Sutter Instrument) and were fire-polished with a microforge (Narishige) before use. Pipette resistance was typically 3–8 MΩ when filled with the recording solutions detailed below. Seal resistance was typically 4 GΩ or higher. Voltage-clamp recordings were made using Axopatch 200B, Digidata 1550, and Clampex 10.7 (Molecular Devices). Analog signals were filtered with the in-built 4-pole Bessel filter at 10 kHz and were digitized at 20 kHz. Solution exchange was achieved using a gravity-fed system through a theta glass pipette mounted on an ultra-fast piezo-driven stepper (Siskiyou). […] All recordings were performed at 20 °C.
A symmetrical ionic condition was used throughout. Stock solution with Ca^2+-EGTA contained 150 mM NaCl, 5.99 mM Ca(OH)2, 5 mM EGTA, and 10 mM HEPES at pH 7.40. Stock solution with EGTA contained 150 mM NaCl, 5 mM EGTA, and 10 mM HEPES at pH 7.40. Free Ca^2+ concentrations were adjusted by mixing the stock solutions at the required ratios calculated using the WEBMAXC program (http://web.stanford.edu/~cpatton/webmaxcS.htm). Patch pipettes were filled with the stock solution with Ca^2+-EGTA, which has a free Ca^2+ concentration of 1 mM. 1PBC (ChemBridge) stock was reconstituted in anhydrous DMSO (Sigma-Aldrich) at 100 mM and stored at −20 °C. Working solutions with 1PBC were prepared by serial dilution. Unless otherwise stated, experiments were performed at a saturating Ca^2+ concentration as shown in Supplementary Table 1 and the primary data were corrected for current rundown as described previously[21],[25].
Concentration-response relations, obtained from the ratio of the I-V plots before and after the application of the blocker, were fitted to the Hill equation,1 I/Imax=1/1+IC50/[blocker]^h where I/Imax is the normalized current responses, IC50 defines the concentration at which inhibition is at its half-maximum, and h is the Hill coefficient.

Q: Which IC50 (0 mV, 2 µM Ca2+) does the source give for `N#Cc1c(C(F)(F)F)cc(O)n2c1nc1ccccc12` [1PBC] here?
A: The IC50 was 30.7 µM.

Q: And the remaining activity at 3 µM (3 µM 1PBC, +80 mV, saturating Ca2+ (2 µM), read-out: I/Imax)?
A: The remaining activity at 3 µM was 84.4%.

Q: What about the remaining activity at 3 µM (3 µM 1PBC, -80 mV, saturating Ca2+ (2 µM), read-out: I/Imax) of the same molecule?
A: Its remaining activity at 3 µM is 94.5%.

Q: What about the remaining activity at 10 µM (10 µM 1PBC, +80 mV, saturating Ca2+ (2 µM), read-out: I/Imax) of the same molecule?
A: Its remaining activity at 10 µM is 63.3%.

Q: And the remaining activity at 10 µM (10 µM 1PBC, -80 mV, saturating Ca2+ (2 µM), read-out: I/Imax)?
A: The remaining activity at 10 µM was 87.2%.

Q: What about the remaining activity at 30 µM (30 µM 1PBC, +80 mV, saturating Ca2+ (2 µM), read-out: I/Imax) of the same molecule?
A: The remaining activity at 30 µM was 36.4%.

Q: And the remaining activity at 30 µM (30 µM 1PBC, -80 mV, saturating Ca2+ (2 µM), read-out: I/Imax)?
A: The remaining activity at 30 µM was 65.6%.

Q: And the remaining activity at 100 µM (+80 mV, saturating Ca2+ (2 µM), read-out: I/Imax)?
A: Its remaining activity at 100 µM is 14%.

Q: What about the remaining activity at 100 µM (-80 mV, saturating Ca2+ (2 µM), read-out: I/Imax) of the same molecule?
A: The remaining activity at 100 µM was 36%.

Q: And the remaining activity at 3 µM (1PBC 3, 0 mV, read-out: fraction of unblocked current)?
A: The remaining activity at 3 µM was 89.8%.

Q: What about the remaining activity at 3 µM (1PBC 3, 20 mV, read-out: fraction of unblocked current) of the same molecule?
A: The remaining activity at 3 µM was 88.3%.

Q: And the remaining activity at 3 µM (1PBC 3, 40 mV, read-out: fraction of unblocked current)?
A: The remaining activity at 3 µM was 86.4%.

Q: What about the remaining activity at 3 µM (1PBC 3, 60 mV, read-out: fraction of unblocked current) of the same molecule?
A: Its remaining activity at 3 µM is 85.9%.

Q: What about the remaining activity at 3 µM (1PBC 3, 80 mV, read-out: fraction of unblocked current) of the same molecule?
A: The remaining activity at 3 µM was 84.4%.

Q: And the remaining activity at 3 µM (1PBC 3, 100 mV, read-out: fraction of unblocked current)?
A: Its remaining activity at 3 µM is 83.9%.

Q: What about the remaining activity at 3 µM (1PBC 3, 120 mV, read-out: fraction of unblocked current) of the same molecule?
A: Its remaining activity at 3 µM is 84.8%.

Q: What about the remaining activity at 3 µM (1PBC 3, 140 mV, read-out: fraction of unblocked current) of the same molecule?
A: The remaining activity at 3 µM was 86.4%.

Q: What about the remaining activity at 3 µM (1PBC 3, -20 mV, read-out: fraction of unblocked current) of the same molecule?
A: Its remaining activity at 3 µM is 91.3%.

Q: And the remaining activity at 3 µM (1PBC 3, -40 mV, read-out: fraction of unblocked current)?
A: Its remaining activity at 3 µM is 92.6%.

Q: What about the remaining activity at 3 µM (1PBC 3, -60 mV, read-out: fraction of unblocked current) of the same molecule?
A: Its remaining activity at 3 µM is 93.3%.

Q: What about the remaining activity at 3 µM (1PBC 3, -80 mV, read-out: fraction of unblocked current) of the same molecule?
A: The remaining activity at 3 µM was 94.5%.

Q: What about the remaining activity at 3 µM (1PBC 3, -100 mV, read-out: fraction of unblocked current) of the same molecule?
A: The remaining activity at 3 µM was 94.8%.

Q: What about the remaining activity at 3 µM (1PBC 3, -120 mV, read-out: fraction of unblocked current) of the same molecule?
A: The remaining activity at 3 µM was 95.1%.

Q: What about the remaining activity at 3 µM (1PBC 3, -140 mV, read-out: fraction of unblocked current) of the same molecule?
A: The remaining activity at 3 µM was 96%.

Q: What about the remaining activity at 10 µM (1PBC 10, 0 mV, read-out: fraction of unblocked current) of the same molecule?
A: Its remaining activity at 10 µM is 76.6%.

Q: What about the remaining activity at 10 µM (1PBC 10, 20 mV, read-out: fraction of unblocked current) of the same molecule?
A: The remaining activity at 10 µM was 72.7%.

Q: What about the remaining activity at 10 µM (1PBC 10, 40 mV, read-out: fraction of unblocked current) of the same molecule?
A: The remaining activity at 10 µM was 68.9%.

Q: And the remaining activity at 10 µM (1PBC 10, 60 mV, read-out: fraction of unblocked current)?
A: Its remaining activity at 10 µM is 65.9%.

Q: And the remaining activity at 10 µM (1PBC 10, 80 mV, read-out: fraction of unblocked current)?
A: The remaining activity at 10 µM was 63.3%.

Q: And the remaining activity at 10 µM (1PBC 10, 100 mV, read-out: fraction of unblocked current)?
A: Its remaining activity at 10 µM is 61.7%.

Q: What about the remaining activity at 10 µM (1PBC 10, 120 mV, read-out: fraction of unblocked current) of the same molecule?
A: The remaining activity at 10 µM was 61.7%.

Q: What about the remaining activity at 10 µM (1PBC 10, 140 mV, read-out: fraction of unblocked current) of the same molecule?
A: The remaining activity at 10 µM was 63.1%.

Q: What about the remaining activity at 10 µM (1PBC 10, -20 mV, read-out: fraction of unblocked current) of the same molecule?
A: The remaining activity at 10 µM was 80.4%.

Q: What about the remaining activity at 10 µM (1PBC 10, -40 mV, read-out: fraction of unblocked current) of the same molecule?
A: Its remaining activity at 10 µM is 82.9%.

Q: And the remaining activity at 10 µM (1PBC 10, -60 mV, read-out: fraction of unblocked current)?
A: Its remaining activity at 10 µM is 85.2%.

Q: What about the remaining activity at 10 µM (1PBC 10, -80 mV, read-out: fraction of unblocked current) of the same molecule?
A: The remaining activity at 10 µM was 87.2%.

Q: What about the remaining activity at 10 µM (1PBC 10, -100 mV, read-out: fraction of unblocked current) of the same molecule?
A: The remaining activity at 10 µM was 88.6%.

Q: And the remaining activity at 10 µM (1PBC 10, -120 mV, read-out: fraction of unblocked current)?
A: The remaining activity at 10 µM was 89%.

Q: What about the remaining activity at 10 µM (1PBC 10, -140 mV, read-out: fraction of unblocked current) of the same molecule?
A: The remaining activity at 10 µM was 89.6%.

Q: What about the remaining activity at 30 µM (1PBC 30, 0 mV, read-out: fraction of unblocked current) of the same molecule?
A: Its remaining activity at 30 µM is 50.3%.

Q: And the remaining activity at 30 µM (1PBC 30, 20 mV, read-out: fraction of unblocked current)?
A: Its remaining activity at 30 µM is 46.3%.

Q: What about the remaining activity at 30 µM (1PBC 30, 40 mV, read-out: fraction of unblocked current) of the same molecule?
A: The remaining activity at 30 µM was 42.2%.

Q: And the remaining activity at 30 µM (1PBC 30, 60 mV, read-out: fraction of unblocked current)?
A: The remaining activity at 30 µM was 39%.

Q: And the remaining activity at 30 µM (1PBC 30, 80 mV, read-out: fraction of unblocked current)?
A: The remaining activity at 30 µM was 36.4%.

Q: And the remaining activity at 30 µM (1PBC 30, 100 mV, read-out: fraction of unblocked current)?
A: Its remaining activity at 30 µM is 34.7%.

Q: What about the remaining activity at 30 µM (1PBC 30, 120 mV, read-out: fraction of unblocked current) of the same molecule?
A: The remaining activity at 30 µM was 34.2%.

Q: And the remaining activity at 30 µM (1PBC 30, 140 mV, read-out: fraction of unblocked current)?
A: The remaining activity at 30 µM was 35.1%.

Q: What about the remaining activity at 30 µM (1PBC 30, -20 mV, read-out: fraction of unblocked current) of the same molecule?
A: Its remaining activity at 30 µM is 54.2%.

Q: And the remaining activity at 30 µM (1PBC 30, -40 mV, read-out: fraction of unblocked current)?
A: Its remaining activity at 30 µM is 58.4%.
